Patent US20240050428A1 (Cullgen (Shanghai), Inc., priority 2020, published 2024)
Read-outs that look alike come from different tables or passages of the source.

Legend:
[1] = tested on: MV4;11 cells; assay: Cell viability assay (CellTiter-Glo) in MV4;11 cells, alone or with gilteritinib; format: cell-based; details: MV4;11 cells, three days, CellTiter-Glo, read-out: MV4
[2] = tested on: MOLM-13 cells; assay: Cell viability assay (CellTiter-Glo) in MOLM-13 cells, alone or with gilteritinib; format: cell-based; details: MOLM-13 cells, three days, CellTiter-Glo
[3] = Homo sapiens, MV4-11, 72 h, compound alone (without gilteritinib), 11 IC50
[4] = Homo sapiens, MV4-11, 72 h, compound with gilteritinib 10 nM, 11 IC50 gilteritinib
[5] = Homo sapiens, MOLM-13, 72 h, compound alone (without gilteritinib), read-out: MOLM-13 IC50
[6] = Homo sapiens, MOLM-13, 72 h, compound with gilteritinib 20 nM, read-out: MOLM-13 IC50 gilteritinib
[7] = Homo sapiens, 72 h, compound alone (without gilteritinib), 11 IC50
[8] = Homo sapiens, 72 h, compound with gilteritinib 10 nM, 11 IC50 gilteritinib
[9] = Homo sapiens, 72 h, compound alone (without gilteritinib), read-out: MOLM-13 IC50
[10] = Homo sapiens, 72 h, compound with gilteritinib 20 nM, read-out: MOLM-13 IC50 gilteritinib

SMILES | IC50 [1, 3] [nM] | IC50 [1, 4] [nM] | IC50 [2, 5] [nM] | IC50 [2, 6] [nM] | IC50 ([1]; compound with gilteritinib 10 nM, 11 IC50 gilteritinib) [nM] | IC50 ([2]; compound alone (without gilteritinib), read-out: MOLM-13 IC50) [nM] | IC50 [1, 7] [nM] | IC50 [1, 8] [nM] | IC50 [2, 9] [nM] | IC50 [2, 10] [nM]
O=C1CCC(N2C(=O)c3ccc(NCCC[C@H]4C[C@@H](n5cc(-c6cnc7cc(NC8COC8)ccc7n6)c(C6CC6)n5)C4)cc3C2=O)C(=O)N1 (stereo partly drawn) [GS-586, 5-((3-(Cis-3-(3-cyclopropyl-4-(6-(oxetan-3-ylamino)quinoxalin-2-yl)-1H-pyrazol-1-yl)cyclobutyl)propyl)amino)-2-(2,6-dioxopiperidin-3-yl)isoindoline-1,3-dione] | 10 to 100 | < 10 | 10 to 100 | < 10 | – | – | – | – | – | –
O=C1CCC(N2C(=O)c3ccc(NCCC[C@H]4C[C@H](n5cc(-c6cnc7ccc(N8CCN(CC(F)(F)F)CC8)cc7n6)cn5)C4)cc3C2=O)C(=O)N1 (stereo partly drawn) [GS-587, 2-(2,6-Dioxopiperidin-3-yl)-5-((3-(trans-3-(4-(7-(4-(2,2,2-trifluoroethyl)piperazin-1-yl)quinoxalin-2-yl)-1H-pyrazol-1-yl)cyclobutyl)propyl)amino)isoindoline-1,3-dione] | 10 to 100 | < 10 | 100 to 1000 | < 10 | – | – | – | – | – | –
O=C1CCC(N2C(=O)c3ccc(NC[C@H]4C[C@H](n5ccc(C6CC6)n5)C4)cc3C2=O)C(=O)N1 (stereo partly drawn) [GS-588, 5-(((trans-3-(3-Cyclopropyl-1H-pyrazol-1-yl)cyclobutyl)methyl)amino)-2-(2,6-dioxopiperidin-3-yl)isoindoline-1,3-dione] | > 1000 | > 1000 | 10 to 100 | 100 to 1000 | – | – | – | – | – | –
Cc1cccc(-c2cn([C@H]3C[C@H](CNc4ccc5c(c4)C(=O)N(C4CCC(=O)NC4=O)C5=O)C3)nc2C2CC2)n1 (stereo partly drawn) [GS-589, 5-(((trans-3-(3-Cyclopropyl-4-(6-methylpyridin-2-yl)-1H-pyrazol-1-yl)cyclobutyl)methyl)amino)-2-(2,6-dioxopiperidin-3-yl)isoindoline-1,3-dione] | 10 to 100 | < 10 | 10 to 100 | < 10 | – | – | – | – | – | –
O=C1CCC(N2C(=O)c3ccc(NC[C@H]4C[C@H](n5nccc5C5CC5)C4)cc3C2=O)C(=O)N1 (stereo partly drawn) [GS-590, 5-(((trans-3-(5-cyclopropyl-1H-pyrazol-1-yl)cyclobutyl)methyl)amino)-2-(2,6-dioxopiperidin-3-yl)isoindoline-1,3-dione] | > 1000 | 100 to 1000 | < 10 | 100 to 1000 | – | – | – | – | – | –
O=C1CCC(N2C(=O)c3ccc(NCCC[C@H]4C[C@H](n5ccc(C6CC6)n5)C4)cc3C2=O)C(=O)N1 (stereo partly drawn) [GS-591, 5-((3-(trans-3-(3-Cyclopropyl-1H-pyrazol-1-yl)cyclobutyl)propyl)amino)-2-(2,6-dioxopiperidin-3-yl)isoindoline-1,3-dione] | > 1000 | 100 to 1000 | > 1000 | 100 to 1000 | – | – | – | – | – | –
Cc1cccc(-c2cn([C@H]3C[C@H](CCCNc4ccc5c(c4)C(=O)N(C4CCC(=O)NC4=O)C5=O)C3)nc2C2CC2)n1 (stereo partly drawn) [GS-592, 5-((3-(trans-3-(3-Cyclopropyl-4-(6-methylpyridin-2-yl)-1H-pyrazol-1-yl)cyclobutyl)propyl)amino)-2-(2,6-dioxopiperidin-3-yl)isoindoline-1,3-dione] | 10 to 100 | < 10 | 100 to 1000 | 10 to 100 | – | – | – | – | – | –
O=C1CCC(N2C(=O)c3ccc(NCCC[C@H]4C[C@H](n5cc(-c6cnc7ccc(N8CCN(CC(F)(F)F)CC8)cc7n6)cn5)C4)cc3C2=O)C(=O)N1 (stereo partly drawn) [GS-593, 2-(2,6-Dioxopiperidin-3-yl)-5-((3-(trans-3-(4-(7-(4-(2,2,2-trifluoroethyl)piperazin-1-yl)quinoxalin-2-yl)-1H-pyrazol-1-yl)cyclobutyl)propyl)amino)isoindoline-1,3-dione] | – | – | – | – | < 10 | 100 to 1000 | – | – | – | –
CN1CC2CC1CN2c1ccc2ncc(-c3cn([C@H]4C[C@H](CCCNc5ccc6c(c5)C(=O)N(C5CCC(=O)NC5=O)C6=O)C4)nc3C3CC3)nc2c1 (stereo partly drawn) [GS-594, 5-((3-(trans-3-(3-Cyclopropyl-4-(7-((1R,4R)-5-methyl-2,5-diazabicyclo[2.2.1]heptan-2-yl)quinoxalin-2-yl)-1H-pyrazol-1-yl)cyclobutyl)propyl)amino)-2-(2,6-dioxopiperidin-3-yl)isoindoline-1,3-dione] | 10 to 100 | < 10 | 100 to 1000 | < 10 | – | – | – | – | – | –
O=C1CCC(N2C(=O)c3ccc(NC[C@H]4C[C@H](n5cc(-c6ccccn6)c(C6CC6)n5)C4)cc3C2=O)C(=O)N1 (stereo partly drawn) [GS-595, 5-(((trans-3-(3-Cyclopropyl-4-(pyridin-2-yl)-1H-pyrazol-1-yl)cyclobutyl)methyl)amino)-2-(2,6-dioxopiperidin-3-yl)isoindoline-1,3-dione] | 100 to 1000 | 10 to 100 | 100 to 1000 | 10 to 100 | – | – | – | – | – | –
O=C1CCC(N2C(=O)c3ccc(NC[C@H]4C[C@H](n5cc(-c6cnccn6)c(C6CC6)n5)C4)cc3C2=O)C(=O)N1 (stereo partly drawn) [GS-596, 5-(((trans-3-(3-Cyclopropyl-4-(pyrazin-2-yl)-1H-pyrazol-1-yl)cyclobutyl)methyl)amino)-2-(2,6-dioxopiperidin-3-yl)isoindoline-1,3-dione] | 100 to 1000 | 100 to 1000 | > 1000 | 100 to 1000 | – | – | – | – | – | –
O=C1CCC(N2C(=O)c3ccc(NC[C@H]4C[C@H](n5cc(-c6cccnn6)c(C6CC6)n5)C4)cc3C2=O)C(=O)N1 (stereo partly drawn) [GS-597, 5-(((trans-3-(3-Cyclopropyl-4-(pyridazin-3-yl)-1H-pyrazol-1-yl)cyclobutyl)methyl)amino)-2-(2,6-dioxopiperidin-3-yl)isoindoline-1,3-dione] | 10 to 100 | > 1000 | > 1000 | 100 to 1000 | – | – | – | – | – | –
O=C1CCC(N2C(=O)c3ccc(NC[C@H]4C[C@H](n5cc(-c6ccccc6)c(C6CC6)n5)C4)cc3C2=O)C(=O)N1 (stereo partly drawn) [GS-598, 5-(((trans-3-(3-Cyclopropyl-4-phenyl-1H-pyrazol-1-yl)cyclobutyl)methyl)amino)-2-(2,6-dioxopiperidin-3-yl)isoindoline-1,3-dione] | – | – | – | – | – | – | 10 to 100 | < 10 | 100 to 1000 | 10 to 100
O=C1CCC(N2C(=O)c3ccc(NC[C@H]4C[C@H](n5cc(-c6ncccn6)c(C6CC6)n5)C4)cc3C2=O)C(=O)N1 (stereo partly drawn) [GS-599, 5-(((trans-3-(3-Cyclopropyl-4-(pyrimidin-2-yl)-1H-pyrazol-1-yl)cyclobutyl)methyl)amino)-2-(2,6-dioxopiperidin-3-yl)isoindoline-1,3-dione] | 100 to 1000 | 10 to 100 | 100 to 1000 | 100 to 1000 | – | – | – | – | – | –
CN1C(=O)CCC(N2C(=O)c3ccc(NCCC[C@H]4C[C@H](n5cc(-c6cnc7ccccc7n6)c(C6CC6)n5)C4)cc3C2=O)C1=O (stereo partly drawn) [GS-600, 5-((3-(trans-3-(3-Cyclopropyl-4-(quinoxalin-2-yl)-1H-pyrazol-1-yl)cyclobutyl)propyl)amino)-2-(1-methyl-2,6-dioxopiperidin-3-yl)isoindoline-1,3-dione] | > 1000 | > 1000 | > 1000 | > 1000 | – | – | – | – | – | –
O=C1CCC(N2C(=O)c3ccc(NC[C@H]4C[C@H](n5cc(-c6ccncn6)c(C6CC6)n5)C4)cc3C2=O)C(=O)N1 (stereo partly drawn) [GS-601, 5-(((trans-3-(3-Cyclopropyl-4-(pyrimidin-4-yl)-1H-pyrazol-1-yl)cyclobutyl)methyl)amino)-2-(2,6-dioxopiperidin-3-yl)isoindoline-1,3-dione] | – | – | – | – | – | – | 10 to 100 | > 1000 | > 1000 | 10 to 100
Cc1cccnc1-c1cnn([C@H]2C[C@H](CCCNc3ccc4c(c3)C(=O)N(C3CCC(=O)NC3=O)C4=O)C2)c1 (stereo partly drawn) [GS-602, 2-(2,6-Dioxopiperidin-3-yl)-5-((3-(trans-3-(4-(3-methylpyridin-2-yl)-1H-pyrazol-1-yl)cyclobutyl)propyl)amino)isoindoline-1,3-dione] | 10 to 100 | < 10 | 100 to 1000 | 10 to 100 | – | – | – | – | – | –
Cc1ccnc(-c2cnn([C@H]3C[C@H](CCCNc4ccc5c(c4)C(=O)N(C4CCC(=O)NC4=O)C5=O)C3)c2)c1 (stereo partly drawn) [GS-603, 2-(2,6-Dioxopiperidin-3-yl)-5-((3-(trans-3-(4-(4-methylpyridin-2-yl)-1H-pyrazol-1-yl)cyclobutyl)propyl)amino)isoindoline-1,3-dione] | 10 to 100 | < 10 | 100 to 1000 | 10 to 100 | – | – | – | – | – | –
O=C1CCC(N2C(=O)c3ccc(NC[C@H]4C[C@H](n5cc(-c6ncccc6N6CCNCC6)c(C6CC6)n5)C4)cc3C2=O)C(=O)N1 (stereo partly drawn) [GS-604, 5-(((trans-3-(3-cyclopropyl-4-(3-(piperazin-1-yl)pyridin-2-yl)-1H-pyrazol-1-yl)cyclobutyl)methyl)amino)-2-(2,6-dioxopiperidin-3-yl)isoindoline-1,3-dione] | 10 to 100 | < 10 | 10 to 100 | < 10 | – | – | – | – | – | –
O=C1CCC(N2C(=O)c3ccc(NC[C@H]4C[C@H](n5cc(-c6cccc(C7CNC7)n6)c(C6CC6)n5)C4)cc3C2=O)C(=O)N1 (stereo partly drawn) [GS-605, 5-(((trans-3-(4-(6-(Azetidin-3-yl)pyridin-2-yl)-3-cyclopropyl-1H-pyrazol-1-yl)cyclobutyl)methyl)amino)-2-(2,6-dioxopiperidin-3-yl)isoindoline-1,3-dione] | > 1000 | > 1000 | > 1000 | > 1000 | – | – | – | – | – | –
